Data taken from US20120172451A1, “CLEANING LIQUID” (priority 2010, published 2012).

Assay: pH measurement
Assay type: physicochemical
Excerpt: All measurements of pH and temperature mentioned in this specification were taken on a Hanna Instruments Ltd. device, with the model no. HI98127 (a waterproof pH and ° C./° F. probe). The measurements of pH and temperature could be taken on other generally available pH and temperature probes.

| pH (50 g/l at 20° C.) | pH (1 mol/L at 20° C.) | SMILES |
| --- | --- | --- |
| 1.8 |  | O=C(O)CC(O)(CC(=O)O)C(=O)O [citric acid] |
|  | around 1.08 | O=P(O)(O)O [phosphoric acid] |
